Holding throughout (assay type): cell-based, rabbit
Assay [1] concerns small diameter cerebral arteries from control and SAH rabbits.
In assay [2] the test system is small diameter cerebral arteries constricted by 60 mmol/L K+. The experiment in a line: tissue or blood.
In assay [3] the target is T1, VDCC currents in cerebral artery myocytes (Oryctolagus cuniculus, UniProt Q02343).
T1 construct: Vascular smooth muscle cells were enzymatically isolated from cerebral arteries as previously described; endogenous in cells; host or cells: freshly isolated cerebral artery myocytes from control and SAH (5 days post-surgery) New Zealand white rabbits

For assay [4], the target named is T2, VDCC currents in cerebral artery myocytes (Oryctolagus cuniculus, UniProt P15381).
T2 construct: Vascular smooth muscle cells were enzymatically isolated from cerebral arteries as previously described; endogenous in cells; host or cells: freshly isolated cerebral artery myocytes from control and SAH (5 days post-surgery) New Zealand white rabbits

The test system of assay [5] is VDCC currents in cerebral artery myocytes.

Where a name gives a salt, the structure may show the parent alone. Read-outs that look alike come from different tables or passages of the source.

T1 sequence (Q02343 whole entry): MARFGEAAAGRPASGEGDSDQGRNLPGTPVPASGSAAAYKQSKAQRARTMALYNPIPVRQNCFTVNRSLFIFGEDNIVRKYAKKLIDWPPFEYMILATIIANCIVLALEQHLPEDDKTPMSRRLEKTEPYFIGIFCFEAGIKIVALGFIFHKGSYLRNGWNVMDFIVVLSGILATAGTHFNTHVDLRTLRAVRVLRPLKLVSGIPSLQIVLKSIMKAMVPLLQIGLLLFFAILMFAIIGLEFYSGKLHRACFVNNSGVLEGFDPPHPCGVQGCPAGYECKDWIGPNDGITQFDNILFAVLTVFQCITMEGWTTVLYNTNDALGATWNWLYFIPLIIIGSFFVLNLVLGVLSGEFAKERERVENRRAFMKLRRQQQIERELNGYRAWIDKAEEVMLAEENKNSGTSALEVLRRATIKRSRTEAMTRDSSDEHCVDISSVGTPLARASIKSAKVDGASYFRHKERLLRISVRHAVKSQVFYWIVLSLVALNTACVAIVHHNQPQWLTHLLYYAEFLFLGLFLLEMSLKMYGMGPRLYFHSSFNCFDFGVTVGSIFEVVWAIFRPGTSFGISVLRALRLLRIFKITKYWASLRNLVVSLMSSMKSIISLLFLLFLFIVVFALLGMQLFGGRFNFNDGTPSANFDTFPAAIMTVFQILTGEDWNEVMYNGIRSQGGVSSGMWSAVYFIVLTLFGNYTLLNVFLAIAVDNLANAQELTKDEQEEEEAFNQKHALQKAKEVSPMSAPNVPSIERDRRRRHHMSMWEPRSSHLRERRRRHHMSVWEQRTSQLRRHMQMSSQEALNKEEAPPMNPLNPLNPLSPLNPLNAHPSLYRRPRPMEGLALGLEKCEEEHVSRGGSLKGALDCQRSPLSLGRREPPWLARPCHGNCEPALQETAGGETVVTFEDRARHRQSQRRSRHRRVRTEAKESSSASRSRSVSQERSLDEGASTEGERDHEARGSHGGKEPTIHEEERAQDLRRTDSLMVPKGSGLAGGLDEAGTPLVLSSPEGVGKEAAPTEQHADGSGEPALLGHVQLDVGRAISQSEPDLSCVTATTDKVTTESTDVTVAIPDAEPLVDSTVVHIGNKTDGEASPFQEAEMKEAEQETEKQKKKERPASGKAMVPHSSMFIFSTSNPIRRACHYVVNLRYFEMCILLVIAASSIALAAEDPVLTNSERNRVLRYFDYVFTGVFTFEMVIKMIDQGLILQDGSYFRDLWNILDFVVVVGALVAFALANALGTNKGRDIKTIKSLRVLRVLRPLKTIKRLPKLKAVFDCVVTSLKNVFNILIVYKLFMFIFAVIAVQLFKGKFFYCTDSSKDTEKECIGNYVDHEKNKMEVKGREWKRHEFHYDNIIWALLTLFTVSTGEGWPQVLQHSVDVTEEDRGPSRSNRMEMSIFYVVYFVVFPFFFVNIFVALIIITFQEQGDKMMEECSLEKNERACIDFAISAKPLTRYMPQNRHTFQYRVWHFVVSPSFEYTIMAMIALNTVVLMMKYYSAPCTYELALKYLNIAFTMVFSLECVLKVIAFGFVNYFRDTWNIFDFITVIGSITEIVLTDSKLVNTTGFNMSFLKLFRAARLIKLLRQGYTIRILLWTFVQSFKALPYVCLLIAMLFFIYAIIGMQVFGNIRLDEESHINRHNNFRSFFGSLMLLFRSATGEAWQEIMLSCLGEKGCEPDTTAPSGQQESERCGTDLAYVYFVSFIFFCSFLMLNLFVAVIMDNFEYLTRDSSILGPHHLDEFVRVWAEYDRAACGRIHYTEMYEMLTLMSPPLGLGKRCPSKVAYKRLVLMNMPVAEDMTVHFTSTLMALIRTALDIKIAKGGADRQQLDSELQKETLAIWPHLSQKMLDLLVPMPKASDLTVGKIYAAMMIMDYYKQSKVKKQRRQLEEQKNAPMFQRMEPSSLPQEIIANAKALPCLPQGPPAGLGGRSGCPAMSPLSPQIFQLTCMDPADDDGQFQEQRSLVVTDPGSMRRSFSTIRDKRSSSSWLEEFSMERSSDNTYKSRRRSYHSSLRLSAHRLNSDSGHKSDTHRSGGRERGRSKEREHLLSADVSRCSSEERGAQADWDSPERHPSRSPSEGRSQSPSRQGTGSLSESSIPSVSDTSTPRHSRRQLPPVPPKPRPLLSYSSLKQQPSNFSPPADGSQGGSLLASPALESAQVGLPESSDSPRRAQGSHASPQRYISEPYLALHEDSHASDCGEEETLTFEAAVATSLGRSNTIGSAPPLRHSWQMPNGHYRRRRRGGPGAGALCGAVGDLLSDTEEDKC
T2 sequence (P15381 1-2166 isoform P15381-4): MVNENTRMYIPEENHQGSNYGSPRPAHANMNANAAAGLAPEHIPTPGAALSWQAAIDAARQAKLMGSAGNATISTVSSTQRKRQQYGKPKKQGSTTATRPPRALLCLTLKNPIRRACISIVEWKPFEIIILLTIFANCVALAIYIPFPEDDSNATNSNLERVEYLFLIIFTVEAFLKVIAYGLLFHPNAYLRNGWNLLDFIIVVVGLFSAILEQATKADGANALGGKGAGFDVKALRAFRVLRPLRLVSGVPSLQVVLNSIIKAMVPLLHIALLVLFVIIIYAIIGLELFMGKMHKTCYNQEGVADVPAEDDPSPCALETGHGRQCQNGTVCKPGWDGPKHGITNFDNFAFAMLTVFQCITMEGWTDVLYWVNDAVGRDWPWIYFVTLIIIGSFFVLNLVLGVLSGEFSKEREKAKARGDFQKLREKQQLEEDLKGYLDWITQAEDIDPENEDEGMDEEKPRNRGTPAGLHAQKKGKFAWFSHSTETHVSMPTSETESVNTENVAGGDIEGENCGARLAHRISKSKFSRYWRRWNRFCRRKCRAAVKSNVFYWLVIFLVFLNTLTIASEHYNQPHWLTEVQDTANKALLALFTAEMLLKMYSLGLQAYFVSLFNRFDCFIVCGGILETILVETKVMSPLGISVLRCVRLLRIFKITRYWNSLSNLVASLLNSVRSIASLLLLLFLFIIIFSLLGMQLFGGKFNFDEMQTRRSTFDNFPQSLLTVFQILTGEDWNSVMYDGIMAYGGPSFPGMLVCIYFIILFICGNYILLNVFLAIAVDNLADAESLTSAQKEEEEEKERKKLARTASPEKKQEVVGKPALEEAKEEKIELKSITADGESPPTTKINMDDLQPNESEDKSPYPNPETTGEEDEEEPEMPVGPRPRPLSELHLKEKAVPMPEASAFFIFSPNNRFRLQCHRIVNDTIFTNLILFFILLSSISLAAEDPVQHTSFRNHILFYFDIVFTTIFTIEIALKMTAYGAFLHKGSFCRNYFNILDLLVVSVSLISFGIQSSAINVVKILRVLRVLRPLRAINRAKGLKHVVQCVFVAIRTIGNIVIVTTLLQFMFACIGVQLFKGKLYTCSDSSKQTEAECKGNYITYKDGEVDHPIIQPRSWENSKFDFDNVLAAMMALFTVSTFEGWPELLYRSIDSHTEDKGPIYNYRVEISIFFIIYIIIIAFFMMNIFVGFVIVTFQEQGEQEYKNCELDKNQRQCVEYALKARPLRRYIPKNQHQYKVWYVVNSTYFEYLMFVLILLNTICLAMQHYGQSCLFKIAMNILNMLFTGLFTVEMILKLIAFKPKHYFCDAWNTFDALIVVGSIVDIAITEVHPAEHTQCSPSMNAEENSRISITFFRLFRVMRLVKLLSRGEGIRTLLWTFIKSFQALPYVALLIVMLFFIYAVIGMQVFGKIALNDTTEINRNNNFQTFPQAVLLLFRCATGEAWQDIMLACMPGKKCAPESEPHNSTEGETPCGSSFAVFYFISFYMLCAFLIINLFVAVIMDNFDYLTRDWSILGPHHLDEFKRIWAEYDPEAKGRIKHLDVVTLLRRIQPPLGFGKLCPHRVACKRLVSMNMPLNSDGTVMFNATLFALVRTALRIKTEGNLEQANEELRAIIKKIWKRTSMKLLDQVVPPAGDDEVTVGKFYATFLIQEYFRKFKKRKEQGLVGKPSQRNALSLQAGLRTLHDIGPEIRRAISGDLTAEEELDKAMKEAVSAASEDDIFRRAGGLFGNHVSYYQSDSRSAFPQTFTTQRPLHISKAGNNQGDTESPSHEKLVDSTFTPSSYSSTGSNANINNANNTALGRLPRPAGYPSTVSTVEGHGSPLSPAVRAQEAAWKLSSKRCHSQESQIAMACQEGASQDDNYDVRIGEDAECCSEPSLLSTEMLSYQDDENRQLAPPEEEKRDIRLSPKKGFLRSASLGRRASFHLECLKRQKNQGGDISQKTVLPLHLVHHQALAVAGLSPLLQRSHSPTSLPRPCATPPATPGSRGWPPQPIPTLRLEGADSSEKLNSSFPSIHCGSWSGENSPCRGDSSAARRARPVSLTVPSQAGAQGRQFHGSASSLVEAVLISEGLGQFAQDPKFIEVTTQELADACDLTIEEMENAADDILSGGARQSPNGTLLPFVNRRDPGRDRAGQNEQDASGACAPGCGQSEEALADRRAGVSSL

On to “H-Gly-Val-Asp-Lys-Ala-Gly-Cys-Arg-Tyr-Met-Phe-Gly-Gly-Cys-Ser-Val-Asn-Asp-Asp-Cys-Cys-Pro-Arg-Leu-Gly-Cys-His-Ser-Leu-Phe-Ser-Tyr-Cys-Ala-Trp-Asp-Leu-Thr-Phe-Ser-Asp-OH (H-GVDKAGCRYMFGGCSVNDDCCPRLGCHSLFSYCAWDLTFSD-OH; cysteine pairing not given here) [SNX-482]”, for which the “dilation of pressurized cerebral arteries” value in assay [1] (arteries from SAH animals, pressurized to 100 mmHg) was “approximately 30%”. Also, in assay [1] (arteries from control animals, pressurized to 100 mmHg), the “effect on pressurized arteries” value is “no significant effect”. For the same molecule, the “dilation of cerebral arteries in the absence of diltiazem” value in assay [2] (arteries constricted with 60 mmol/L K+, SNX-482 220 nmol/L alone) was “can dilate”. Besides, the “residual constriction observed in the presence of diltiazem” value in assay [2] (arteries cultured with oxyhemoglobin for 5 days, 60 mM K+, 1 mmol/L diltiazem, then SNX-482 220 nmol/L) is “effectively reversed”. In assay [3] (myocytes from SAH animals, SNX-482 200 nmol/L), the “reduction of VDCC currents” value is on record as “approximately 30%”. In addition, the “effect on VDCC currents” value in assay [4] (myocytes from control animals, SNX-482 200 nmol/L) was “no effect”.

For ω-Agatoxin IVA, in assay [5] (SAH myocytes, 100 nmol/L), the “peak inward currents at +20 mV” value was “did not alter”.

Take `[Cd]` [cadmium]: in assay [3] (SAH myocytes, cadmium 200 μmol/L, n=4, data not shown), the “VDCC currents resistant to nifedipine (10 μmol/L)” value is reported as “abolished”.

On to ω-Conotoxin GVIA, for which the “peak inward currents at +20 mV” value in assay [5] is “did not alter”.

Turning to `COc1ccc([C@@H]2Sc3ccccc3N(CCN(C)C)C(=O)[C@@H]2OC(C)=O)cc1` (relative stereo) [diltiazem, benzothiazepin-4(5H)-one, 3-(acetyloxy)-5-[2-(dimethylamino)ethyl]-2,3-dihydro-2-(4-methoxyphenyl)-,(+)-cis-,monohydrochloride], the “pressure-induced constriction at 100 mmHg” value in assay [1] (arteries from control animals, diltiazem 50 μmol/L) was “abolished”. In assay [2] (Oryctolagus cuniculus, 120 h), this molecule had an IC50 of 16.9 ± 6.9 µM. Besides, the EC50 in assay [2] (Oryctolagus cuniculus, B164, 0 h, read-out: EC50 of diltiazem treatment of K+ induced constricted arteries, Day 0, −Oxy Hb) was found to be 1020 ± 70 nM; in assay [2] (Oryctolagus cuniculus, B164, 24 h, read-out: EC50 of diltiazem treatment of K+ induced constricted arteries, Day 1, +Oxy Hb), 950 ± 140 nM; in assay [2] (Oryctolagus cuniculus, B164, 24 h, read-out: EC50 of diltiazem treatment of K+ induced constricted arteries, Day 1, −Oxy Hb) it was 760 ± 70 nM; in assay [2] (Oryctolagus cuniculus, B164, 72 h, read-out: EC50 of diltiazem treatment of K+ induced constricted arteries, Day 3, +Oxy Hb), 1070 ± 60 nM; in assay [2] (Oryctolagus cuniculus, B164, 72 h, read-out: EC50 of diltiazem treatment of K+ induced constricted arteries, Day 3, −Oxy Hb) it was 780 ± 120 nM; in assay [2] (Oryctolagus cuniculus, B164, 120 h, read-out: EC50 of diltiazem treatment of K+ induced constricted arteries, Day 5, +Oxy Hb) it was 16900 ± 6900 nM. Moreover, the half-maximal effective concentration (EC50) in assay [2] (Oryctolagus cuniculus, B164, 120 h, read-out: EC50 of diltiazem treatment of K+ induced constricted arteries, Day 5, −Oxy Hb) was 1100 ± 100 nM. Also, the “reduction of K+-induced constriction” value in assay [2] ([…], diltiazem 1 mmol/L, 60 mmol/L K+) was determined as 99.7±0.4%. The “current resistant to the L-type VDCC antagonist” value in assay [5] is “approximately 20%”. In addition, the “block of membrane currents” value in assay [4] is reported as “completely blocked”.

These data come from patent publication US8268795B2 (priority 2005, dated 2012).
